# Experimental data reported in US5869460A, “Sulfated and phosphated saccharide derivatives, process for the preparation of the same and use thereof” (Sanwa Kaguku Kenkyusho Co., Ltd., priority 1995, dated 1999).
# Key:
# [1] = test system: lung damage model induced by cobra venom factor (CVF); bleeding; assay: Anti-inflammatory action to lung damage model induced by CVF: index of bleeding (hemoglobin absorbance, 541 nm, in lung homogenate supernatant); assay type: in vivo, Lewis rats; conditions: for inhibition in vivo at 0.2 mg: Rattus norvegicus, iv, 0.5 h, read-out: Inhibition rate (%), index of bleeding
# Protocol: (§1) Anti-inflammatory action to lung damage model induced by CVF Compounds obtained by Examples and an exemplary known compound (sulfatide) were selected as Test Compounds to check an inflammatory action thereof to a lung damage model induced by cobra venom factor (CVF), in accordance with the method described by M. S. Mulligan et al ["J. IMMUNOL.", Vol.151, page 6410 (1993); and "INT. IMMUNOL.", Vol. 7, page 1107 (1995)].
# (§2) Namely, the test compound was intravenously injected by an amount of 0.2 mg/rat to test animals (Lewis rats, age of 8 weeks, 5 animals in each group). After lapsed 5 minutes from administration, CVF (20U/2 ml/kg) was administered in a tail vein, and after 30 minutes, a laparotomy was carried out under nembutal anesthesia to perfuse the lung with phosphate-buffered saline (PBS, pH7.4) by injecting the same from right ventricle and to exenterate the lung. The extracted lung was homogenized with phosphate buffer (pH 7.4), centrifuged to collect a supernatant, and determined absorbance which was admitted as index of bleeding (It measures an amount of hemoglobin and thus detection wave-length was set to 541 nm).
# (§3) Each inhibition rate (%) was calculated by
# (§4) 100×[1-(value of test compound-value of negative control)/(value of positive control-value of negative control)].
# [2] = test system: lung damage model induced by cobra venom factor (CVF); infiltration in neutrocyte (myeloperoxidase); assay: Anti-inflammatory action to lung damage model induced by CVF: myeloperoxidase activity as index of infiltration in neutrocyte; assay type: in vivo, Lewis rats; conditions: for inhibition in vivo at 0.2 mg: Rattus norvegicus, iv, 0.5 h, read-out: Inhibition rate (%), myeloperoxidase activity as index of infiltration in neutrocyte
# Protocol: as §1, §2
# On the other hand, the precipitation obtained by centrifugation was sonicated in the presence of cetrimide and centrifuged to obtain a supernatant, an activity myeloperoxidase therein being measured as an index of infiltration in neutrocyte.
# as §3, §4
# [3] = test system: lung injury model, activation of whole body complements by CVF; conditions: INT. IMMUNOL. 7, 1107 (1995); cited from earlier work
# [4] = test system: lung injury model, lgG immunocomplex; conditions: INT. IMMUNOL. 7, 1107 (1995); cited from earlier work
# [5] = test system: L-selectin; conditions: in vitro, plastic plate; BIOCHEM. BIOPHY. RES. COM. 190, 426 (1993); cited from earlier work
Molecule,inhibition in vivo at 0.2 mg [1] [%],inhibition in vivo at 0.2 mg [2] [%],other results
Sulfatide [reference compound],,,"Inhibition rate (%), index of bleeding ([1]; 0.2 mg/rat i.v., 5 min before CVF (20U/2 ml/kg, tail vein), hemoglobin absorbance at 541 nm, Table 1): 53%; Inhibition rate (%), myeloperoxidase activity as index of infiltration in neutrocyte ([2]; 0.2 mg/rat i.v., 5 min before CVF (20U/2 ml/kg, tail vein), lung precipitation, Table 2): 50%; inflammation inhibition effect [3]: shows inflammation inhibition effect; inflammation inhibition effect [4]: shows inflammation inhibition effect"
"CCCC(CCC)CO[C@@H]1O[C@H](CO)[C@H](O)[C@H](OP(=O)(O)O)[C@H]1O[C@@H]1O[C@@H](C)[C@@H](O)[C@@H](OP(=O)(O)O)[C@@H]1O [Example 24-2, tetrasodium 2-propylpentyl O-α-L-fucopyranosyl-(1→2)-β-D-galactopyranoside 3,3'-diphosphate]",50,49,
"CCCC(CCC)CO[C@@H]1O[C@H](CO)[C@H](O)[C@H](OS(=O)(=O)O)[C@H]1O[C@@H]1O[C@@H](C)[C@@H](O)[C@@H](OS(=O)(=O)O)[C@@H]1O [Example 24-1, Disodium 2-propylpentyl O-α-L-fucopyranosyl-(1→2)-β-D-galactopyranoside 3,3'-disulfate]",54,47,
"CCCC(CCC)CO[C@@H]1O[C@H](CO)[C@H](O)[C@H](OS(=O)(=O)O)[C@H]1O[C@@H]1O[C@@H](C)[C@@H](O)[C@@H](O)[C@@H]1O [Example 23-1, Sodium 2-propylpentyl O-α-L-fucopyranosyl-(1→2)-β-D-galactopyranoside 3-sulfate]",53,51,
"CCCC(CCC)CO[C@@H]1O[C@H](COS(=O)(=O)O)[C@H](O)[C@H](OS(=O)(=O)O)[C@H]1O[C@@H]1O[C@@H](C)[C@@H](O)[C@@H](OS(=O)(=O)O)[C@@H]1O [Example 26, Trisodium 2-propylpentyl O-α-L-fucopyranosyl-(1→2)-β-D-galactopyranoside 3,3',6-trisulfate]",56,50,
"CCCC(CCC)CO[C@@H]1O[C@H](COS(=O)(=O)O)[C@H](O)[C@H](OS(=O)(=O)O)[C@H]1O [Example 6, Disodium 2-propylpentyl β-D-galactopyranoside 3,6-disulfate]",0,12,
"CCCC(CCC)CO[C@@H]1O[C@H](CO)[C@@H](O[C@@H]2O[C@H](CO)[C@H](O)[C@H](OS(=O)(=O)O)[C@H]2O)[C@H](O)[C@H]1O [Example 10-1, Sodium 2-propylpentyl O-β-D-galactopyranosyl-(1→4)-β-D-glucopyranoside 3'-sulfate]",65,66,
"CCCC(CCC)CO[C@@H]1O[C@H](CO)[C@H](O)[C@H](OP(=O)(O)O)[C@H]1O [Example 18, Disodium 2-propylpentyl β-D-galactopyranoside 3-phosphate]",50,51,
"CCCC(CCC)CO[C@@H]1O[C@H](CO)[C@H](O)[C@H](OP(=O)(O)O)[C@H]1O[C@@H]1O[C@@H](C)[C@@H](O)[C@@H](O)[C@@H]1O [Example 23-2, disodium 2-propylpentyl O-α-L-fucopyranosyl-(1→2)-β-D-galactopyranoside 3-phosphate]",51,49,
"CC(C)CO[C@@H]1O[C@H](COS(=O)(=O)O)[C@H](OS(=O)(=O)O)[C@H](OS(=O)(=O)O)[C@H]1OS(=O)(=O)O [Example 3-2, tetrasodium 2-methylpropyl β-D-galactopyranoside 2,3,4,6-tetrasulfate]",49,24,
CCCCCCCCCCCCCCC(CCCCCCCCCCCCCC)CO[C@@H]1O[C@H](CO)[C@@H](O[C@@H]2O[C@H](CO)[C@H](O)[C@H](OS(=O)(=O)O)[C@H]2O)[C@H](O)[C@H]1O [2-tetradesyl hexadesyl O-β-D-galactopyranosyl-(1→4)-β-D-glucopyranoside 3'-sulfate],,,binding specificity to L-selectin [5]: show a binding specificity to L-selectin
"CCCC(CCC)CO[C@@H]1O[C@H](COS(=O)(=O)O)[C@H](OS(=O)(=O)O)[C@H](OS(=O)(=O)O)[C@H]1OS(=O)(=O)O [Example 7-2, tetrasodium 2-propylpentyl β-D-galactopyranoside 2,3,4,6-tetrasulfate]",42,42,
"CCCC(CCC)CO[C@@H]1O[C@H](CO)[C@@H](O)[C@H](OP(=O)(O)O)[C@H]1OP(=O)(O)O [Example 19, Tetrasodium 2-propylpentyl β-D-glucopyranoside 2,3-diphosphate]",43,39,
"CCCCCCCCCCCCCCC(CCCCCCCCCCCCCC)CO[C@@H]1O[C@H](CO)[C@H](O)[C@H](OS(=O)(=O)O)[C@H]1O[C@@H]1O[C@@H](C)[C@@H](O)[C@@H](OS(=O)(=O)O)[C@@H]1O [Example 28-1, disodium 2-tetradecylhexadecyl O-α-L-fucopyranosyl-(1→2)-β-D-galactopyranoside 3,3'-disulfate]",63,60,
"CCCC(CCC)CO[C@@H]1O[C@H](COS(=O)(=O)O)[C@H](O)[C@H](O)[C@H]1O [Example 5, Sodium 2-propylpentyl β-D-galactopyranoside 6-sulfate]",52,47,
"CC(C)CO[C@@H]1O[C@H](COP(=O)(O)O)[C@H](OP(=O)(O)O)[C@H](OP(=O)(O)O)[C@H]1OP(=O)(O)O [Example 12, Octasodium 2-methylpropyl β-D-galactopyranoside 2,3,4,6-tetranhosphate]",0,30,
"CCCCCCCCCCCCCCC(CCCCCCCCCCCCCC)CO[C@@H]1O[C@H](COS(=O)(=O)O)[C@H](O)[C@H](OS(=O)(=O)O)[C@H]1O[C@@H]1O[C@@H](C)[C@@H](O)[C@@H](OS(=O)(=O)O)[C@@H]1O [Example 30, Trisodium 2-tetradecylhexadecyl O-α-L-fucopyranosyl-(1→2)-β-D-galactopyranoside 3,3',6-trisulfate]",70,62,
"CCCCCCCCCCCCCCC(CCCCCCCCCCCCCC)CO[C@@H]1O[C@H](COS(=O)(=O)O)[C@@H](O[C@@H]2O[C@H](COS(=O)(=O)O)[C@H](O)[C@H](OS(=O)(=O)O)[C@H]2O)[C@H](O)[C@H]1O [Example 11-2, trisodium 2-tetradecylhexadecyl O-β-D-galactopyranosyl-(1→4)-β-D-glucopyranoside 3',6',6-trisulfate]",82,70,
"CCCCCCCCCCCCCCC(CCCCCCCCCCCCCC)CO[C@@H]1O[C@H](CO)[C@@H](O[C@@H]2O[C@H](COS(=O)(=O)O)[C@H](O)[C@H](OS(=O)(=O)O)[C@H]2O)[C@H](O)[C@H]1O [Example 11-1, Disodium 2-tetradecylhexadecyl O-β-D-galactopyranosyl-(1→4)-β-D-glucopyranoside 3',6'-disulfate]",100,82,
CCCCCCCCCCCCCCC(CCCCCCCCCCCCCC)CO[C@@H]1O[C@H](CO)[C@H](O)[C@H](OS(=O)(=O)O)[C@H]1O [2-tetradesyl hexadesyl β-D-galactopyranoside 3-sulfate],,,inflammation inhibition effect [3]: shows inflammation inhibition effect; inflammation inhibition effect [4]: shows inflammation inhibition effect; binding specificity to L-selectin [5]: show a binding specificity to L-selectin
"CCCC(CCC)CO[C@@H]1O[C@H](CO)[C@@H](O[C@@H]2O[C@H](COS(=O)(=O)O)[C@H](O)[C@H](OS(=O)(=O)O)[C@H]2O)[C@H](O)[C@H]1O [Example 10-2, disodium 2-propylpentyl O-β-D-galactopyranosyl-(1→4)-β-D-glucopyranoside 3',6'-disulfate]",63,82,
"CCCC(CCC)CO[C@@H]1O[C@H](CO)[C@H](OP(=O)(O)O)[C@H](OP(=O)(O)O)[C@H]1O [Example 16, Tetrasodium 2-propylpentyl β-D-galactopyranoside 3,4-diphosphate]",75,70,
